In data set [1] the test system is rat small intestine powder (enzyme solution). Nature of the data set: Test Example 2 purine nucleotide metabolism inhibitory activity (inosine monophosphate substrate, HPLC). In kind it is biochemical. The conditions noted are these: 37° C., 30 minutes. Here is the method: Ca(OH)2 (Inoue Calcium Corporation) as a calcium source, Mg(OH)2 (Tomita Pharmaceutical Co., Ltd.) as a magnesium source, KOH (NIPPON SODA CO., LTD.) as a potassium source, NaOH (Tosoh Corporation) as a sodium source were placed in a 50 mL PP tube (IWAKI) at molar ratios of the minerals shown in Table 2. Then a commercially available phytic acid solution (product name: phytic acid (IP6), TSUNO Food Industrial co., ltd.) 0.426 mL (containing 0.296 g of phytic acid) was placed therein. Distilled water (Otsuka Pharmaceutical Factory, Inc.) was added thereto to make up the volume to 30 mL. The mixture was stirred for 30 seconds using a vortex mixer, followed by ultrasonication (ASONE) for 60 seconds to prepare a test solution containing phytin with various mineral compositions.
As a positive control, a test solution containing a commercially available phytin (phytin (IP6), TSUNO Food Industrial co., ltd.) was prepared at the same concentration of phytic acid as the other test solutions.
A 100 mg/mL of solution of rat small intestine powder (Clare Japan, Inc.) in the assay buffer was used as an enzyme solution. Inosine monophosphate (Sigma-Aldrich) was diluted with the assay buffer to the concentration of 9 mM to prepare a substrate solution. Enzymatic reaction was performed using a 96 well plate (Thermo Fisher Scientific) in the following manner. […]

A short description of data set [2]: Test Example 4 stability (deliquescence). The class given is physicochemical. As to conditions: 200 mg, 25° C., humidity 75.3%, 64 hours. Set-up: key: “Deliquesced” refers to a change where the sample completely liquefied to become starch syrup-like; “Partially-deliquesced” refers to a change where a part of the sample deliquesced or solidified.; “No change” refers to a no change in state of the sample. On the procedure: Ca(OH)2 (Inoue Calcium Corporation) as a calcium source, Mg(OH)2 (Tomita Pharmaceutical Co., Ltd.) as a magnesium source, KOH (NIPPON SODA CO., LTD.) as a potassium source, NaOH (Tosoh Corporation) as a sodium source were placed in a 50 mL PP tube (IWAKI) at the molar ratios of minerals shown in Table 3. Then a commercially available phytic acid solution (product name: phytic acid (IP6), TSUNO Food Industrial co., ltd.) 0.426 mL (containing 0.296 g of phytic acid) was placed therein. Distilled water (Otsuka Pharmaceutical Factory, Inc.) was added thereto to make up the volume to 30 mL. The mixture was stirred for 30 seconds using a vortex mixer, followed by ultrasonication (ASONE) for 60 seconds. This operation of stirring and ultrasonication was repeated three times in total. Then the mixture was adjusted to pH 4.0±0.2 with hydrochloric acid and pre-frozen at −80° C. The pre-frozen mixture was freeze-dried by using a freeze dryer to provide a completely powdered phytin. The completely powdered phytin was used as a sample.
As positive controls, a sample of phytic acid (powder) prepared following the above procedure without adding any mineral component, and a commercially available phytic acid powder product (product name: Powdered phytic acid, FUSO CHEMICAL CO., LTD.) were used. […]

The results in this text go back to patent US20250042924A1, “WATER-SOLUBLE PHYTIN” (OTSUKA PHARMACEUTICAL CO., LTD., priority 2021, published 2025).

In the case of `O=P(O)(O)O[C@H]1[C@H](OP(=O)(O)O)[C@@H](OP(=O)(O)O)[C@H](OP(=O)(O)O)[C@@H](OP(=O)(O)O)[C@H]1OP(=O)(O)O` [Phytic acid (PA), phytic acid], the enzyme inhibitory activity result in data set [1] is “around 30%”. Also, the Deliquescence result is “Deliquesced” in data set [2] and “deliquesced” in data set [2] (listed as phytic acid sample).
